{"source": "patent US20070134261A1", "about": "“Effectors of innate immunity” (priority 2001, published 2007)", "key": {"[1]": {"tested_on": "HBE cells", "assay": "Phosphorylation of MAP kinases (Western blot) in HBE cells", "assay_type": "cell-based, human", "protocol": "(§1) The cells were seeded at 2.5×10^5−5×10^5 cells/ml and left overnight. They were washed once in media, serum starved in the morning (serum free media—4 hrs). The media was removed and replaced with PBS, then sat at 37° C. for 15 minutes and then brought to room temp for 15 minutes. Peptide was added (concentrations 0.1 μg/ml−50 μg/ml) or H2O and incubated 10 min. The PBS was very quickly removed and replaced with ice-cold radioimmunoprecipitation (RIPA) buffer with inhibitors (NaF, B-glycerophosphate, MOL, Vanadate, PMSF, Leupeptin Aprotinin). The plates were shaken on ice for 10-15 min or until the cells were lysed and the lysates collected. The procedure for THP-1 cells was slightly different; more cells (2×10^6) were used. They were serum starved overnight, and to stop the reaction 1 ml of ice-cold PBS was added then they sat on ice 5-10 min, were spun down then resuspended in RIPA. Protein concentrations were determined using a protein assay (Pierce, Rockford, Ill.). Cell lysates (20 μg of protein) were separated by SDS-PAGE and transferred to nitrocellulose filters. […] The freshly harvested cells were consistently >99% viable as assessed by their ability to exclude trypan blue. […] Protein content was analyzed and approximately 30 μg of each sample was loaded in a 12% SDS-PAGE gel. […] Phosphorylation was detected with phosphorylation-specific antibodies."}, "[2]": {"tested_on": "mouse macrophage RAW cell line", "assay": "Phosphorylation of MAP kinases (Western blot) in RAW cell line", "assay_type": "cell-based", "protocol": "as §1"}}}
{"smiles": "CC[C@H](C)[C@H](N)C(=O)N[C@@H](CC(C)C)C(=O)N1CCC[C@H]1C(=O)N[C@@H](Cc1c[nH]c2ccccc12)C(=O)N[C@@H](CCCCN)C(=O)N[C@@H](Cc1c[nH]c2ccccc12)C(=O)N1CCC[C@H]1C(=O)N[C@@H](Cc1c[nH]c2ccccc12)C(=O)N[C@@H](Cc1c[nH]c2ccccc12)C(=O)N1CCC[C@H]1C(=O)N[C@@H](Cc1c[nH]c2ccccc12)C(=O)N[C@@H](CCCNC(=N)N)C(=O)N[C@@H](CCCNC(=N)N)C(N)=O", "note": "[SEQ ID NO: 2]", "values": [{"measurement": "phosphorylation of p38 and ERK1/2", "setting": "[1]", "result": "dose dependent phosphorylation"}, {"measurement": "phosphorylation of p38 and ERK1/2", "setting": "[2]", "result": "dose dependent phosphorylation"}]}
